Laboratory results taken from patent US8263642B2, “Antimicrobial compounds and methods of use thereof” (Vanderbilt University, priority 2008, dated 2012).

How the values were obtained:
Assay type in all cases: cell-based, Staphylococcus aureus
[1] = tested on: S. aureus heme toxicity adaptation; assay: Heme adaptation (resistance to heme-mediated toxicity), Newman; details: whether compound induces heme adaptation
Description: With reference to Table 1, “Luminescence” refers to the raw luminescence value obtained in a luminomter. “Control (82.5 nm)” refers to the luminescence value obtained from heme at 82.5 nM as a positive control in the same plate as the experimental. “% lum” is the percentage of luminescence induced by the compound as compared to the heme control in the same plate. […] All of these assays are described in the application. […] “N/T” indicates the test was not performed.
This secondary counter screen can involve testing the compounds of interest for their ability to increase the resistance of wildtype S. aureus to heme-mediated toxicity. Upon sensing heme, HssRS increases the expression of hrtAB, in turn increasing the resistance of S. aureus to heme mediated toxicity. By extension, additional molecules recognized by HssRS leading to hrtAB activation can result in a similar increase in resistance to heme mediated toxicity. For this assay, bacteria can be grown for 15 hours in the presence of compounds of interest (using concentrations determined in the XylE assay), followed by subculture into TSB containing 10 μM heme. Compounds that increase the resistance of S. aureus to heme-mediated toxicity can be selected for further studies. S. aureus strains unable to adapt to heme mediated toxicity (ΔhssR) can be included as a negative control. As a positive control, wildtype S. aureus can be exposed to subinhibitory concentrations of heme prior to subculture. The inclusion of this secondary counterscreen can, in some aspects, rule out compounds that non-specifically increase the expression of the XylE and Lux-based reporter genes.
S. aureus cultures were grown overnight (O/N ˜15 hrs) at 37° C. with shaking at 180 RPM in tryptic soy broth (TSB). Cultures were diluted 1:75 and inoculated into roundbottom 96-well plates in a final volume of 150 μl. Cultures were grown at 37° C. with aeration and bacterial growth was monitored by the increase in absorbance (O.D.600) over time. For the hemin adaptation assays, the medium was supplemented with different hemin concentrations prior to bacterial inoculation. The results represent the mean±S.D. from triplicate determinations and the asterisks denote statistically significant differences as determined by Student's t test (p<0.05).

response regulator HssR = assay: HssR dependence of XylE inducing activity, Newman; details: whether XylE inducing activity requires HssR
Description: With reference to Table 1, “Luminescence” refers to the raw luminescence value obtained in a luminomter. “Control (82.5 nm)” refers to the luminescence value obtained from heme at 82.5 nM as a positive control in the same plate as the experimental. “% lum” is the percentage of luminescence induced by the compound as compared to the heme control in the same plate. […] All of these assays are described in the application. […] “N/T” indicates the test was not performed. […]
S. aureus strains harboring the appropriate reporter construct were inoculated into 500 μl of TSB containing 10 μg/ml chloramphenicol in 1.5 ml tubes. Cultures were grown O/N at 37° C. with shaking. Bacteria were pelleted by centrifugation and spent medium was aspirated. The pellet was washed once with 500 μl of 20 mM potassium phosphate, pH 7.6, and resuspended in 150 μl of 100 mM potassium phosphate buffer, pH 8.0, 10% (v/v) acetone, 25 μg/ml lysostaphin. After 20 minute incubation at 37° C. and 5 minute incubation on ice, samples were centrifuged at 20,000 g for 30 minutes at 4° C. 1-10 μl of supernatant was added to a 96-well plate and 200 μl of 100 mM potassium phosphate, pH 8.0, 0.2 mM pyrocatechol was added to each well. Formation of 2-hydroxymuconic semialdehyde was tracked by measuring the absorbance at 375 nm every minute for 30 minutes on a Varian MP 50 microplate reader. Protein concentration in samples was determined by BCA (Pierce). One unit of specific activity of XylE in a sample is defined as the formation of 1 nmol of 2-hydroxymuconic semialdehyde per minute per milligram of cellular protein at 30° C. (Chien, Y., Manna, A. C., Projan, S. J., and Cheung, A. L. 1999, “SarA, a global regulator of virulence determinants in Staphylococcus aureus, binds to a conserved motif essential for sar-dependent gene regulation. J. Biol. Chem. 274, 37169-37176).

[2] = tested on: hrtAB-driven expression of the xylE reporter gene; assay: XylE reporter assay (hrtAB promoter-xylE), Newman; details: for XylE (0.05): level of XylE induction at 0.05 uM of the compound; for XylE (0.5): level of XylE induction at 0.5 uM of the compound; for XylE (5.0): level of XylE induction at 5.0 uM of the compound; for XylE (50.0): level of XylE induction at 50.0 uM of the compound
Summary of the method: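 S. aureus carrying hrtAB promoter-xylE fusion in pOS1 grown O/N at 37° C in TSB with chloramphenicol, lysed with lysostaphin. Lysate XylE activity read as 2-hydroxymuconic semialdehyde formation from 0.2 mM pyrocatechol (A375, every minute for 30 minutes), normalised to BCA protein; unit = 1 nmol/min/mg at 30° C.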

SMILES | Heme Adapt [1] | HssR Dep (response regulator HssR) | XylE (0.05) [2] | XylE (0.5) [2] | XylE (5.0) [2] | XylE (50.0) [2]
CC(C)(C)c1ccc(O)c(NC(=S)NC(=O)c2cc3ccccc3o2)c1 | + | + | 0.09 | 0.8 | 0.9 | 1
Fc1ccc(CNC(=S)Nc2ccc(Oc3ccccc3)cc2)cc1 | + | + | 0.06 | 0.05 | 0.2 | 1
COc1ccc(-c2cc(-c3ccc(OC)cc3O)n[nH]2)cc1 | + | + | 0.06 | 0.02 | 0.7 | 4
Oc1c(-c2cc(-c3ccco3)[nH]n2)ccc2ccccc12 [drawing 65] | + | + | 0.4 | 0.07 | 12 | 5
COc1ccc(-c2cc(-c3ccc(C)cc3)[nH]n2)c(O)c1 | + | + | 0.08 | 0.02 | 0.07 | 0.09
CCCN1C(=O)/C(=C2/C(=O)N(CC(=O)Nc3ccc(Cl)cc3)c3ccccc32)SC1=S [drawing 67] | + | + | 0.02 | 0.04 | 0.05 | 1
COc1ccccc1NC1=C/C(=N\S(=O)(=O)c2ccc(Br)cc2)c2ccccc2C1=O [drawing 81] | + | + | 1 | 1 | 1 | 1
Cc1ccc(O)c(NC(=O)c2nn3c(c2Br)NC(c2ccco2)CC3C(F)(F)F)c1 (stereo not drawn) [drawing 29] | + | + | 0.05 | 0.06 | 5 | 3
CC(NC(=O)C1(c2ccccc2)CCCC1)C1COc2ccccc2O1 (stereo not drawn) [drawing 45] | + | + | 0.04 | 0.1 | 0.7 | 0.05
O=C(N/N=C/c1ccc(-c2ccc(Br)cc2)o1)C1COc2ccccc2O1 (stereo not drawn) [drawing 48] | + | + | 0.02 | 0.08 | 0.7 | 0.2
Oc1c(-c2cc(-c3ccco3)[nH]n2)ccc2ccccc12 [drawing 25] | + | + | 0.07 | 0.06 | 0.2 | 1000
Cc1cccc(C(=O)Nc2ccc(-c3nc4ccccc4o3)cc2)c1 [drawing 43] | + | + | 0.09 | 0.7 | 1 | 0.09
COc1ccc(C(=O)Nc2sc(-c3ccccc3)cc2C(N)=O)cc1 | + | + | 0.07 | 0.09 | 4 | 6
CC(NC(=O)C1(c2ccccc2)CCCC1)C1COc2ccccc2O1 (stereo not drawn) [drawing 26] | + | + | 0.06 | 0.05 | 0.7 | 200
COc1ccc(Br)cc1C(=O)NC(=S)Nc1cc(C)c(C)cc1O [drawing 63] | + | + | 0.08 | 0.8 | 0.9 | 2
O=C(N/N=C/c1ccc(-c2cccc(C(F)(F)F)c2)o1)C1COc2ccccc2O1 (stereo not drawn) [drawing 49] | + | + | 0.07 | 0 | 0.6 | 0.09
Cc1ccc(NS(=O)(=O)c2ccc3c(c2)Cc2cc(S(=O)(=O)Nc4ccc(C)cc4)ccc2-3)cc1 [drawing 74] | + | + | 1 | 1 | 15 | 14
